In patent US11980598B2, “N-(2-(substituted-naphth-1-yl)ethyl) substituted amide compound, preparation and uses thereof” (BEIJING GREATWAY PHARMACEUTICAL TECHNOLOGY CO., LTD., priority 2017, dated 2024):
Like-named read-outs stand apart in the source and are kept apart here.

Assays:
[1] = In vitro metabolism study, human liver microsomal incubation system; type: in vitro ADME
Experimental: (§1) TSQ Quantum liquid chromatography-mass spectrometer (LC/MS/MS) from Finnigan Inc, USA, chromatography column: TSKgel Amide-80 column (2.0 mm I.D.×100 mm, 5 μm); mobile phase: acetonitrile-water-formic acid (50:50:0.1); flow rate: 0.2 mL/min; injection volume: 5 μL; column temperature: room temperature. Ionization source is electrospray ionization (ESI) with 4.8 KV of spray voltage; capillary temperature (TEM): 300° C.; sheath gas: N2, flow rate: 10 psi; auxiliary gas: N2, flow rate: 1 psi; collision gas (CID): Ar at a pressure of 1.5 mTorr. The mass spectrometry scanning method was selective reaction monitoring (SRM) and detected by positive ion method. The internal standard was a […] solution of aconitine in acetonitrile, the minimum limit of quantification was 5 ng/mL, and the correlation coefficient was >0.99.
Approximately 10 mg of each sample to be tested was accurately weighed, dissolved in 0.1 mL of DMSO, and serially diluted with purified water to a 10 μM, 1 μM standard stock solution. An ice bath was operated and the incubation system for detection was formulated according to Table 4. NADPH was added to the incubation system to start the reaction, and then 50 μL was immediately added to 150 μL acetonitrile as a zero-time sample and a 1 μM standard curve sample. Another 1 μM standard stock solution was added to the incubation system, and then 50 μL was immediately added to 150 μL acetonitrile as a 0.1 μM standard curve sample. […] Each sample was shaken, and centrifuged at 18000 g for 10 min. The supernatant was taken for LC/MS/MS injection and determination.

[2] = In vivo metabolism study, rat oral/tail vein injection model; conditions: for half-life: read-out: t½ (converted); for bioavailability: oral 5 mg/kg vs intravenous 0.5 mg/kg, dose conversion, read-out: F % (bioavailability)
Experimental: Male SD rats, weighing 200±20 g, SPF grade, were purchased from SPF Biotechnology Co., Ltd.
as §1
Formulation of a solution for intravenous administration: approximately 5 mg of each test drug was accurately weighed, and dissolved in 50 μL of DMSO. To the solution was added an appropriate amount of 40% PEG400 aqueous solution to prepare a 0.5 mg/mL solution. The administration volume was 0.2 mL/200 g body weight, and the dose was 0.5 mg/kg body weight according to concentration conversion.
Formulation of a solution for i.g. administration: approximately 5 mg of each test drug was accurately weighed, and suspended and dispersed with a 1% aqueous solution of HPMC to prepare a 1 mg/mL suspension. The administration volume was 1 mL/200 g body weight, and the dose was 5 mg/kg body weight in terms of concentration according to concentration conversion.
Rats were randomly divided into 4 groups of 5 rats each. Oral gavage and tail vein administration were carried out according to the above dosages. At 2 min, 5 min, 15 min, 30 min, 1 h, 1.5 h, 2 h, and 3 h after administration, blood was collected from an orbit, and centrifuged at 8000 rpm for 10 min. 50 μL of plasma was weighed, and added with 50 μL of internal standard and 150 μL of acetonitrile. The mixture was mixed by shaking, and centrifuged at 18000 rpm for 10 min. The supernatant was taken for LC/MS/MS injection and determination. The determined data were analyzed using a DAS pharmacokinetic program to calculate the main pharmacokinetic parameters.

[3] = tested on: Kunming mice; test: Forced mouse swimming test; type: in vivo; conditions: 10 mg/kg intraperitoneal, 3 days, last 4 of 6 min
Experimental: Animals: Kunming mice, male, body weight 18-22 g, SPF grade; SD rats, male, body weight 150-180 g, SPF grade. The test was carried out after acclimatization, and the animal was fasted for 12 hours before the test.
All drugs for the test were suspended and dispersed in a 1% aqueous solution of hydroxypropyl methylcellulose (HPMC), and shaken well before use. […] The doses for administration were all 10 mg/kg. For the concentration and volume for administration, see J Psychiatry Neurosci 2004; 29(2):126-133. The mice were intraperitoneally administered in a volume of 0.5 mL/20 g; and the rats were administered by i.g. in a volume of 2 mL/100 g.
Animal grouping and administration method were the same as those in the tail suspension test in mice. The mice were placed in a round glass vessel with a height of 20 cm, an inner diameter of 12 cm, a water depth of 10 cm and a water temperature of 25° C.

[4] = tested on: SD rats; test: Anxiety behavior model of repeatedly administrated rat: novelty-suppressed feeding test; type: in vivo; conditions: D12
Experimental: (§2) The requirements for test animals, drug formulation and administration were the same as those of the rat chronic mild stress model.
(§3) Instruments: Vogel drinking anxiety device for rat and O-maze device for rat were manufactured by Shanghai XinRuan Company. The rat feeding chamber was a home-made white plastic box (60×45×25 cm).
(§4) The rats were administrated continuously by i.g. once a day. A novelty-suppressed feeding test, a Vogel drinking conflict test, and an O-maze test were performed on a different day, respectively. Each behavior test was performed at 9:00-12:00, and the administration time was 16:00-17:00. The test process was as follows: D12, novelty-suppressed feeding test (animals were fasted for 48 hours before the test); D18, Vogel drinking conflict test (animals were banned from water for 48 hours before the test); D21, O-maze test.
Common paddings with a thickness of 1.5 cm were placed at the floor of the rat feeding chamber, and six equal-sized food pellets were placed in the center. During the test, the rats were individually placed in a fixed position of the feeding chamber, and observed for 5 minutes. The time from rat entry to the start of biting or chewing the food was recorded with a stopwatch.

[5] = tested on: SD rats; test: Anxiety behavior model of repeatedly administrated rat: O-maze test; type: in vivo; conditions: D21, 5 minutes
Experimental: as §2, §3, §4
An O-maze device was placed in the center of a dark room and illuminated with an infrared light during the test. The animal was placed in the center of a closed arm of an O-maze track, timed for 5 minutes, and the activity of the rat in the maze was monitored by an infrared camera. Animals in each group were given a single intragastric administration 60 min before the test. Observation indicators were the number of times the rat entered the open arm and the accumulated dwell time in the open arm.

[6] = tested on: SD rats; test: Acute toxicity test of rat; type: in vivo; conditions: for Acute reaction after single administration / Adverse reactions during 14-day observation / Body weight compared with the blank group: rats, 2000 mg/kg i.g.
Experimental: Rats were administered by i.g. at a dose of 2000 mg/kg. The drugs were dispersed with a 1% aqueous solution of hydroxypropyl methylcellulose (HPMC).

[7] = molecular target: CYP2C9 (Homo sapiens (Human), UniProt P11712); conditions: first-pass effect of the liver; cited from earlier work
Chain of CYP2C9 (P11712 whole entry): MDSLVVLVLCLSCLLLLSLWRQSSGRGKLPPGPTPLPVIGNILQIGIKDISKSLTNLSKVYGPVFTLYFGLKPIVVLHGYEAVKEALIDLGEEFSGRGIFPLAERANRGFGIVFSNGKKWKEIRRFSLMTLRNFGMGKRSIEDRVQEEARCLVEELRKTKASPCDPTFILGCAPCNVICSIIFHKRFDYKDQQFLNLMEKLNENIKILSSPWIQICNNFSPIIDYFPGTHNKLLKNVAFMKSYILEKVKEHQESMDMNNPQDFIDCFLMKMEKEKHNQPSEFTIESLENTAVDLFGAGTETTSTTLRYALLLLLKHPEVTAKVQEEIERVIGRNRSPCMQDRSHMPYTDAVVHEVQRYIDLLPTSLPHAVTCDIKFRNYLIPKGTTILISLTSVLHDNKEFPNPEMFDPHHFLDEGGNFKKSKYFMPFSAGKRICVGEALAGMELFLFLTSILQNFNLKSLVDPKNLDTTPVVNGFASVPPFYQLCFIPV

[8] = incubation time 0 min, 1 μM, 1 mg/mL microsome, 37° C.

Structure (SMILES)	Concentration measured at incubation time point [1, 8]	Concentration measured at incubation time point ([1]; incubation time 5 min)	Concentration measured at incubation time point ([1]; incubation time 15 min)	AUC(0-t) ([2]; oral 5 mg/kg)	Immobility time [3]	Feeding latency ([4]; 10 mg/kg i.g. once a day)	Feeding latency ([4]; 20 mg/kg i.g. once a day)	Feeding latency ([4]; 40 mg/kg i.g. once a day)	Dwell time in the open arm ([5]; 10 mg/kg i.g.)	Number of times entering the open arm ([5]; 10 mg/kg i.g.)	Dwell time in the open arm ([5]; 20 mg/kg i.g.)	Number of times entering the open arm ([5]; 20 mg/kg i.g.)	Dwell time in the open arm ([5]; 40 mg/kg i.g.)	Number of times entering the open arm ([5]; 40 mg/kg i.g.)	Acute reaction after single administration [6]	Adverse reactions during 14-day observation [6]	Body weight compared with the blank group [6]	further results
COc1ccc2cccc(CCNC(C)=O)c2c1 [Agomelatine, reference compound]	0.999 ± 0.059 µM	0.539 ± 0.019 µM	0.009 ± 0.005 µM	0.05157 µg·h/mL	113.5 ± 26.6 s	208 ± 26 s	163 ± 25 s	124 ± 25 s	126 ± 15 s	2.25 ± 0.4	196 ± 30 s	3.1 ± 0.8	170 ± 29 s	6.2 ± 1.0	8 rats were slow to move or became lethargic, and all returned to normal within 2 hours	no obvious adverse reactions within 14 days after the administration	no significant difference in body weight compared with the blank group	half-life ([2]; male, Sprague-Dawley (SD), plasma, intravenous injection 0.5 mg/kg): 20.4 min; AUC(0-t) ([2]; male, Sprague-Dawley (SD), plasma, iv, 0.5 mg/kg, intravenous injection 0.5 mg/kg, read-out: AUC(0-t)): 0.102 µg·h/mL; bioavailability ([2]; male, Sprague-Dawley (SD), plasma): 5.05%; half-life ([2]; male, Sprague-Dawley (SD), plasma, oral 5 mg/kg): 40.2 min; AUC(0-t) ([2]; male, Sprague-Dawley (SD), plasma, po, 5 mg/kg, oral 5 mg/kg, read-out: AUC(0-t)): 0.0516 µg·h/mL; share metabolized by CYP2C9 [7]: about 10%
[2H]C([2H])([2H])Oc1cc2c(CCNC(C)=O)cccc2cc1Cl [Example 1, N-(2-(6-chloro-7-deuteromethoxy-naphthalen-1-yl)ethyl)acetamide]	1.001 ± 0.019 µM	0.793 ± 0.108 µM	0.194 ± 0.046 µM	0.24883 µg·h/mL	73.0 ± 18.2 s	141 ± 17 s	124 ± 18 s	120 ± 14 s	201 ± 17 s	8.8 ± 0.9	245 ± 6 s	10.89 ± 0.7	171 ± 27 s	6.3 ± 1.1	the activity of the rats became slightly smaller but there were no obvious adverse reactions	no obvious adverse reactions within 14 days after the administration	no significant difference in body weight compared with the blank group	Metabolic stability in human liver microsome (comparison) ([1]; compared among examples and controls): highest metabolic stability; Concentration measured at incubation time point ([1]; incubation time 30 min): 0.110 ± 0.088 µM; half-life ([2]; male, SD, plasma, intravenous injection 0.5 mg/kg): 28.8 min; AUC(0-t) ([2]; male, SD, plasma, iv, 0.5 mg/kg, intravenous injection 0.5 mg/kg, read-out: AUC(0-t)): 0.0489 µg·h/mL; bioavailability ([2]; male, SD, plasma): 50.9%; half-life ([2]; male, SD, plasma, oral 5 mg/kg): 29.4 min; AUC(0-t) ([2]; male, SD, plasma, po, 5 mg/kg, oral 5 mg/kg, read-out: AUC(0-t)): 0.249 µg·h/mL; Feeding latency ([4]; 5 mg/kg i.g. once a day): 232 ± 23 s; Dwell time in the open arm ([5]; 5 mg/kg i.g.): 131 ± 30 s; Number of times entering the open arm ([5]; 5 mg/kg i.g.): 4.8 ± 0.9; Safety compared with control drug ([6]; rat model, overall): safer than the control drug Agomelatine
